Reference: the supplement of paper PMC11061612

Legend:
Assay in all cases: combination Emax (second highest fraction inhibited in the dose matrix, 72 h); higher = more inhibition; extreme values may be limits of the assay
EW-7 (Ewing's Sarcoma) = system: EW-7 (Ewing's Sarcoma)
Outline: (§1)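 Bliss excess equals the observed combination effect minus the expected value EA + EB − EA·EB, where EA and EB are the effects of each agent alone. Combination Emax is the second-highest inhibition within the matrix. Inhibition was scaled from CellTiter-Glo 2.0 luminescence, with 0 set by vehicle wells and 1 by blank wells, after 72 hours of two-drug dosing of cells plated in 1536-well plates.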

KP-N-YN (Neuroblastoma) = system: KP-N-YN (Neuroblastoma)
Outline: as §1

[1] = system: MDA-MB-436 (Breast Carcinoma)
Outline: as §1

[2] = system: JHH-2 (Hepatocellular Carcinoma)
Outline: as §1

[3] = system: JHU-022 (Oral Cavity Carcinoma)
Outline: as §1

[4] = system: NCI-H2087 (Lung Adenocarcinoma)
Outline: as §1

[5] = system: KYSE-220 (Esophageal Squamous Cell Carcinoma)
Outline: as §1

[6] = system: UACC-812 (Breast Carcinoma)
Outline: as §1

[7] = system: NCI-H1703 (Squamous Cell Lung Carcinoma)
Outline: as §1

[8] = system: HCC1395 (Breast Carcinoma)
Outline: as §1

| Compound | combination Emax (EW-7 (Ewing's Sarcoma)) | combination Emax (KP-N-YN (Neuroblastoma)) | combination Emax [1] | combination Emax [2] | combination Emax [3] | combination Emax [4] | combination Emax [5] | combination Emax [6] | combination Emax [7] | combination Emax [8] |
| --- | --- | --- | --- | --- | --- | --- | --- | --- | --- | --- |
| O=C(c1cc(Cc2n[nH]c(=O)c3ccccc23)ccc1F)N1CCN(C(=O)C2CC2)CC1 [Olaparib] + Cc1c2c(nn1C)CSCc1cc(n(C)n1)CSc1cc(c3ccccc3c1)OCCCc1c(C(=O)O)n(C)c3c-2c(Cl)ccc13 [AZD5991] (first compound max 10 µM, 7x7, partner max 1 µM) | 0.787 | 0.335 | 0.234 | 0.163 | 0.0997 | 0.13 | 0.166 | 0.643 | 0.859 | 0.616 |
| Cc1c2c(nn1C)CSCc1cc(n(C)n1)CSc1cc(c3ccccc3c1)OCCCc1c(C(=O)O)n(C)c3c-2c(Cl)ccc13 [AZD5991] + CS(=O)(=O)CCNCc1ccc(-c2ccc3ncnc(Nc4ccc(OCc5cccc(F)c5)c(Cl)c4)c3c2)o1 [Lapatinib] (first compound max 1 µM, 7x7, partner max 10 µM) | 0.666 | 0.374 | 0.274 | 0.446 | 0.705 | 0.275 | 0.933 | 0.929 | 0.935 | 0.94 |
| CN(CCO)CC[C@H](CSc1ccccc1)Nc1ccc(S(=O)(=O)NC(=O)c2ccc(N3CCC([C@@H](O)c4ccccc4-c4ccc(Cl)cc4)CC3)cc2)cc1S(=O)(=O)C(F)(F)F [AZD4320] + CS(=O)(=O)CCNCc1ccc(-c2ccc3ncnc(Nc4ccc(OCc5cccc(F)c5)c(Cl)c4)c3c2)o1 [Lapatinib] (first compound max 1 µM, 7x7, partner max 10 µM) | 0.979 | – | 0.256 | 0.778 | 0.784 | 0.541 | 0.967 | 0.616 | 0.862 | 0.96 |
| Cc1nc(-c2cn3c(n2)-c2ccc(-c4cnn(C(C)(C)C(N)=O)c4)cc2OCC3)n(C(C)C)n1 [Taselisib] + O=C(Nc1ccc2[nH]nc(-c3ccncc3)c2c1)[C@@H]1CCN(CC(=O)N2CCN(c3ccc(-c4ncccn4)cc3)CC2)C1 [SCH772984] (first compound max 10 µM, 7x7, partner max 5 µM) | 0.999 | 0.553 | 0.469 | 0.971 | 0.769 | 0.71 | 0.905 | 0.428 | 0.722 | 0.606 |
| C=CCn1c(=O)c2cnc(Nc3ccc(N4CCN(C)CC4)cc3)nc2n1-c1cccc(C(C)(C)O)n1 [AZD1775] + CCc1c2c(nc3ccc(O)cc13)-c1cc3c(c(=O)n1C2)COC(=O)[C@]3(O)CC [SN-38] (first compound max 1 µM, partner max 0.3 µM) | 0.966 | – | 0.591 | 0.76 | 0.783 | 0.941 | 0.909 | 0.513 | 0.992 | 0.733 |
| Cc1c2c(nn1C)CSCc1cc(n(C)n1)CSc1cc(c3ccccc3c1)OCCCc1c(C(=O)O)n(C)c3c-2c(Cl)ccc13 [AZD5991] + Nc1ccn([C@@H]2O[C@H](CO)[C@@H](O)C2(F)F)c(=O)n1 [Gemcitabine] (first compound max 1 µM, 7x7, partner max 0.3 µM) | 1 | – | 0.56 | 0.483 | 0.659 | 0.546 | 0.724 | 0.755 | 0.954 | – |
| C[C@@H](Oc1cc(-c2cnn(C3CCNCC3)c2)cnc1N)c1c(Cl)ccc(F)c1Cl [Crizotinib] + Cn1cnc2c(F)c(Nc3ccc(Br)cc3Cl)c(C(=O)NOCCO)cc21 [Selumetinib] (first compound max 10 µM, 7x7, partner max 10 µM) | 0.929 | 0.607 | 0.292 | 0.598 | 0.496 | 0.587 | 0.973 | 0.154 | 0.535 | 0.491 |
| C[C@@H]1COCCN1c1cc(C2([S@](C)(=N)=O)CC2)nc(-c2ccnc3[nH]ccc23)n1 [AZD6738] + C1CC(C1)(C(=O)[O-])C(=O)[O-].N.N.[Pt+2] [Carboplatin] (first compound max 10 µM, 7x7, partner max 10 µM) | 0.936 | – | 0.266 | 0.507 | 0.513 | 0.564 | 0.827 | 0.381 | 0.932 | 0.586 |
| CC1(C)CCC(CN2CCN(c3ccc(C(=O)NS(=O)(=O)c4ccc(NCC5CCOCC5)c([N+](=O)[O-])c4)c(Oc4cnc5[nH]ccc5c4)c3)CC2)=C(c2ccc(Cl)cc2)C1 [Venetoclax] + CS(=O)(=O)CCNCc1ccc(-c2ccc3ncnc(Nc4ccc(OCc5cccc(F)c5)c(Cl)c4)c3c2)o1 [Lapatinib] (first compound max 1 µM, 7x7, partner max 10 µM) | 0.656 | 0.57 | 0.227 | 0.395 | 0.631 | 0.0976 | 0.917 | 0.471 | 0.385 | 0.826 |
| C[C@@H](Nc1cc(F)cc(F)c1)c1cc(C(=O)N(C)C)cc2c(=O)cc(N3CCOCC3)oc12 [AZD8186] + C1CN(CCC1(C(=O)N[C@@H](CCO)C2=CC=C(C=C2)Cl)N)C3=NC=NC4=C3C=CN4 [AZD5363] (first compound max 10 µM, 7x7, partner max 10 µM) | 0.678 | 0.257 | 0.449 | 0.716 | 0.494 | 0.195 | 0.445 | 0.333 | 0.635 | 0.414 |
| O=C(c1cc(Cc2n[nH]c(=O)c3ccccc23)ccc1F)N1CCN(C(=O)C2CC2)CC1 [Olaparib] + CN(CC[C@H](CSC1=CC=CC=C1)NC2=C(C=C(C=C2)S(=O)(=O)NC(=O)C3=CC=C(C=C3)N4CCC(CC4)[C@H](C5=CC=CC=C5C6=CC=C(C=C6)Cl)O)S(=O)(=O)C(F)(F)F)CCO [AZD4320] (first compound max 10 µM, 7x7, partner max 1 µM) | 0.944 | 0.968 | 0.308 | 0.171 | 0.163 | 0.413 | 0.267 | 0.251 | 0.19 | 0.407 |
| C[C@@H]1COCCN1c1cc(C2([S@](C)(=N)=O)CC2)nc(-c2ccnc3[nH]ccc23)n1 [AZD6738] + Nc1ccn([C@@H]2O[C@H](CO)[C@@H](O)C2(F)F)c(=O)n1 [Gemcitabine] (first compound max 10 µM, 7x7, partner max 0.3 µM) | 1 | – | 0.621 | 0.716 | 0.695 | 0.699 | 0.857 | 0.66 | 0.954 | 0.693 |
| O=C(c1cc(Cc2n[nH]c(=O)c3ccccc23)ccc1F)N1CCN(C(=O)C2CC2)CC1 [Olaparib] + CC1(C)CCC(CN2CCN(c3ccc(C(=O)NS(=O)(=O)c4ccc(NCC5CCOCC5)c([N+](=O)[O-])c4)c(Oc4cnc5[nH]ccc5c4)c3)CC2)=C(c2ccc(Cl)cc2)C1 [Venetoclax] (first compound max 10 µM, 7x7, partner max 1 µM) | 0.786 | 0.728 | 0.277 | 0.114 | 0.174 | 0.176 | 0.155 | 0.243 | 0.18 | 0.242 |
| C[C@@H](Nc1cc(F)cc(F)c1)c1cc(C(=O)N(C)C)cc2c(=O)cc(N3CCOCC3)oc12 [AZD8186] + CC(=O)c1c(C)c2cnc(Nc3ccc(N4CCNCC4)cn3)nc2n(C2CCCC2)c1=O [Palbociclib] (first compound max 10 µM, 7x7, partner max 10 µM) | 0.509 | 0.433 | 0.472 | 0.693 | 0.512 | 0.24 | 0.38 | 0.389 | 0.643 | 0.382 |
| CS(=O)(=O)CCNCc1ccc(-c2ccc3ncnc(Nc4ccc(OCc5cccc(F)c5)c(Cl)c4)c3c2)o1 [Lapatinib] + Cn1cnc2c(F)c(Nc3ccc(Br)cc3Cl)c(C(=O)NOCCO)cc21 [Selumetinib] (first compound max 10 µM, 7x7, partner max 10 µM) | 0.731 | 0.409 | 0.352 | 0.565 | 0.702 | 0.575 | 0.954 | 0.5 | 0.482 | 0.846 |
| Cc1c2c(nn1C)CSCc1cc(n(C)n1)CSc1cc(c3ccccc3c1)OCCCc1c(C(=O)O)n(C)c3c-2c(Cl)ccc13 [AZD5991] + CC(=O)O[C@H]1C(=O)[C@@]2(C)[C@H]([C@H](OC(=O)c3ccccc3)[C@]3(O)C[C@H](OC(=O)[C@H](O)[C@@H](NC(=O)c4ccccc4)c4ccccc4)C(C)=C1C3(C)C)[C@]1(OC(C)=O)CO[C@@H]1C[C@@H]2O [Paclitaxel] (first compound max 1 µM, 7x7, partner max 3 µM) | 0.984 | 0.608 | 0.391 | 0.783 | 0.371 | 0.554 | 0.745 | 0.794 | 0.993 | 0.933 |
| O=C(c1cc(Cc2n[nH]c(=O)c3ccccc23)ccc1F)N1CCN(C(=O)C2CC2)CC1 [Olaparib] + COc1nnc2ccc(N3CCC(c4ccc(OCCN5CCN(C)C(=O)[C@H]5C)cc4)CC3)nn12 [AZD5153] (first compound max 10 µM, 7x7, partner max 1 µM) | 0.746 | 0.521 | 0.316 | 0.314 | 0.35 | 0.39 | 0.558 | 0.376 | 0.571 | 0.426 |
| C=CCn1c(=O)c2cnc(Nc3ccc(N4CCN(C)CC4)cc3)nc2n1-c1cccc(C(C)(C)O)n1 [AZD1775] + Nc1ccn([C@@H]2O[C@H](CO)[C@@H](O)C2(F)F)c(=O)n1 [Gemcitabine] (first compound max 1 µM, partner max 0.3 µM) | 1 | – | 0.608 | 0.735 | 0.617 | 0.6 | 0.793 | 0.626 | 0.984 | 0.515 |
| C[C@@H](Oc1cc(-c2cnn(C3CCNCC3)c2)cnc1N)c1c(Cl)ccc(F)c1Cl [Crizotinib] + CC1=C(C(=CC=C1)Cl)NC(=O)C2=CN=C(S2)NC3=CC(=NC(=N3)C)N4CCN(CC4)CCO [Dasatinib] (first compound max 10 µM, 7x7, partner max 2 µM) | 0.945 | 0.71 | 0.3 | 0.883 | 0.648 | 0.39 | 0.968 | 0.181 | 0.799 | 0.88 |
